In paper doi:10.1101/2023.10.02.559746v1 (biorxiv, 2023) one finds Kd data, which are given here for 1 compound.

Usually Kd stands for the free concentration of one partner at which half of the binding sites on the other are occupied at equilibrium, for simple one-to-one binding. Read a low Kd as higher affinity.

This test deals with T1, RALY (Homo sapiens, UniProt Q9UKM9).
T1 sequence (Q9UKM9 2-306): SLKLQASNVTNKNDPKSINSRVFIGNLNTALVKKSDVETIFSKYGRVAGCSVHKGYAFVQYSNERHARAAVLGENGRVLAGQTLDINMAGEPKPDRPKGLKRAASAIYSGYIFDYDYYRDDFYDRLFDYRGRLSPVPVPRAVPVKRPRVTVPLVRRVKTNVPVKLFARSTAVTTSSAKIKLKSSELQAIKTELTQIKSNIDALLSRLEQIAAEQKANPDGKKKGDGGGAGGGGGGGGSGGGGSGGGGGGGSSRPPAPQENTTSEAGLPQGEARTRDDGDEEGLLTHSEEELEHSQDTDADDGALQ
Description: surface plasmon resonance imaging. The format is binding. For orientation: In SPR one partner is held on a chip, and binding of the other changes the refractive index at the surface.

Compound `CC(C)[C@H](CN)NC[C@H](C)NS(=O)(=O)c1ccc(C(C)(C)C)cc1` [2470-51, N-((S)-1-(((R)-1-amino-3-methylbutan-2-yl)amino)propan-2-yl)-4-(tert-butyl)benzenesulfonamide] came in with a dissociation constant (Kd) of 15.5 µM.
